The values below come from US9314458B2, “Topical use of ingenol-3-angelate or a salt thereof to treat skin cancer” (LEO Laboratories Limited, priority 2000, dated 2016).

One assay concerns adenovirus 5. Nature of the assay: Adenovirus replication in human melanoma cells. Format: cell-based. To be noted: 2 days. The source says: Human melanoma cells were infected with ten-fold dilutions of adenovirus 5 in culture, treated with dilutions of PEP005, PEP006, PEP008 and PEP010 and adenovirus replication determined 2 days later by immunhistochemical detection of virus-replicating cells.

The subject of assay [1] is peripheral blood mononuclear cells. Nature of the assay: Phagocytosis with fluorescent beads. Format: cell-based. As to conditions: 30 min, whole heparinized blood. On the procedure:
Phagocytosis by peripheral blood mononuclear cells (PBMCs) was assayed (Steinkamp et al., 1982) using 1 μm Fluoresbrite™ yellow-green fluorescent latex spheres (Polysciences, Inc., Warrington, Pa.). A sample of whole, heparinized blood was treated with drug and 5×10E7 fluorescent latex beads in 10 μL of PBS added per mL of suspension. Cells were incubated and maintained in suspension for 30 min by means of a shaker platform at 37° C. The stimulated and non-stimulated samples were then lysed to isolate PBMCs. The PBMCs were run on the flow cytometer measuring FITC (excitation at 488 nm, emission at 525±20 nm), gated for fluorescence (phagocytosed spheres) and light scatter (cell size).

The next assay concerns the target T1, PKCγ (Homo sapiens, UniProt P05129).
T1 construct: host or cells: HeLa cells
Nature of the assay: EGFP-PKC translocation in HeLa cells (PKCγ). Format: cell-based. To be noted: one hour, TPA 100 ng/mL, bryostatin-1 5 pg/mL, PEP003 2.25 μg/mL (5 μM), PEP005 670 μg/mL (1.5 μM). As for the experimental part: (§1) Five EGFP-PKC isoforms (Clontech) were available for this experiment, enabling the screening of the three predominant PKC families (i.e. classical, novel and atypical PKCs). The members of the various PKC families are α, β, and γ (classical), θ (novel) and ζ (atypical).
(§2) HeLa cells were plated out in a 24-well plate containing coverslips and transfected with PKC isoforms fused to EGFP, using a commercially available effectine-transfection kit (QIAGEN, Pty. Ltd.). Cells were exposed to the transfection reagents for 16-24 hr. Subsequently, transfected cells were treated for one hour with TPA (100 ng/mL), bryostatin-1 (5 pg/mL), PEP003 (2.25 μg/mL; 5 μM) or PEP005 ([…]) 1.5 μM). Following treatment, cells were fixed on coverslips and mounted on glass slides. The slides were subsequently examined visually by fluorescence microscopy, photographed, and over 150 cells were counted/treatment/PKC isoform. Counted cells were classified according to the localisation of the PKC-EGFP fluorescence as either cytoplasmic or plasma membrane using ImagePro™ 4.1 (FIG. 5). […] The number of these cells was also counted. Results are presented as an average and standard deviation of percentages of cells (Table 1).

The test system of assay [2] is Peripheral blood mononuclear cells (granulocytes, monocytes, lymphocytes). Nature of the assay: Respiratory burst, DCFH-DA H2O2 flow cytometry. The format is cell-based. As to conditions: 15 min at 37° C. As for the experimental part: Experiments were also carried out using 2′,7′-dichlorofluorescein diacetate (DCFH-DA) to measure the production of H2O2. (J P Robinson, Oxidative burst methods, in Handbook of Flow Cytometry Methods, Wiley-Liss Inc, pp 147-149, 1993). H2O2 oxidizes the non-fluorescent probe (DCFH-DA) to a fluorescent probe that can then be detected by a flow cytometer. Peripheral blood mononuclear cells (PBMC) were extracted from a donor blood sample by lysis of heparinized blood and used in a suspension of 1×10^6/mL of phosphate buffer, pH 7.3. The cells were then incubated with DCFH-DA (1 μL/mL of 20 mM stock) for 15 minutes to allow it to be taken up and trapped by hydrolysis with cellular esterases. The cells were then stimulated by test compounds for 15 min at 37° C. Controls included in the experiment were unloaded control (cells with no DCFH-DA) and loaded control (cells with DCFH-DA, but no stimulation). These were used to monitor the non-specific oxidation of unstimulated cells. The cells were then analyzed on the flow cytometer (excitation at 488 nm, emission at 525±20 nm), gating each sample for individual cell populations—granulocytes, monocytes and lymphocytes (Table 3).
(Flow cytometry measures light scatter and fluorescence of single cells or particles in a stream.)

In the next assay the target is T2, PKCθ (Homo sapiens, UniProt Q04759).
T2 construct: host or cells: HeLa cells
T2 sequence (Q04759 whole entry): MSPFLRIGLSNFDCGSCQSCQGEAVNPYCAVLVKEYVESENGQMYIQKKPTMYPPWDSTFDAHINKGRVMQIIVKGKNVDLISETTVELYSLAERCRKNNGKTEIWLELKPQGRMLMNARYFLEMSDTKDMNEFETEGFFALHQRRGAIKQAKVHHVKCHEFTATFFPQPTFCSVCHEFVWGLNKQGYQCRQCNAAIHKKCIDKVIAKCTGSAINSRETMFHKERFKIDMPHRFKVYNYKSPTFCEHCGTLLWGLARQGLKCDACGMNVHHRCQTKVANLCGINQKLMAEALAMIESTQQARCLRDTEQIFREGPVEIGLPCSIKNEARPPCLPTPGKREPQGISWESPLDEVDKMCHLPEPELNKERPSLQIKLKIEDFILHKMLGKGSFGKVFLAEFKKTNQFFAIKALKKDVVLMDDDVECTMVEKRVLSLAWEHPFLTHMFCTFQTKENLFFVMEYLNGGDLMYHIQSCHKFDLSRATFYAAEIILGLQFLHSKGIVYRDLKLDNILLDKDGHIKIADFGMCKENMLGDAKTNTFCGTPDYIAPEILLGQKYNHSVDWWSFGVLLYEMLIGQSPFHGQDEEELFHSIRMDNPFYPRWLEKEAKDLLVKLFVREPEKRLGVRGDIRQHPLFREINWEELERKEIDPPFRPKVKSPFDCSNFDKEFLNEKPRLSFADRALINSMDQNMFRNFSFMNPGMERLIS
Nature of the assay: EGFP-PKC translocation in HeLa cells (PKCθ). As to conditions: one hour, same concentrations. Format: cell-based. On the procedure:
as §1, §2

The target of a further assay is T3, PKCβ (Homo sapiens, UniProt P05771).
T3 construct: host or cells: HeLa cells
T3 sequence (P05771 whole entry, species assumed): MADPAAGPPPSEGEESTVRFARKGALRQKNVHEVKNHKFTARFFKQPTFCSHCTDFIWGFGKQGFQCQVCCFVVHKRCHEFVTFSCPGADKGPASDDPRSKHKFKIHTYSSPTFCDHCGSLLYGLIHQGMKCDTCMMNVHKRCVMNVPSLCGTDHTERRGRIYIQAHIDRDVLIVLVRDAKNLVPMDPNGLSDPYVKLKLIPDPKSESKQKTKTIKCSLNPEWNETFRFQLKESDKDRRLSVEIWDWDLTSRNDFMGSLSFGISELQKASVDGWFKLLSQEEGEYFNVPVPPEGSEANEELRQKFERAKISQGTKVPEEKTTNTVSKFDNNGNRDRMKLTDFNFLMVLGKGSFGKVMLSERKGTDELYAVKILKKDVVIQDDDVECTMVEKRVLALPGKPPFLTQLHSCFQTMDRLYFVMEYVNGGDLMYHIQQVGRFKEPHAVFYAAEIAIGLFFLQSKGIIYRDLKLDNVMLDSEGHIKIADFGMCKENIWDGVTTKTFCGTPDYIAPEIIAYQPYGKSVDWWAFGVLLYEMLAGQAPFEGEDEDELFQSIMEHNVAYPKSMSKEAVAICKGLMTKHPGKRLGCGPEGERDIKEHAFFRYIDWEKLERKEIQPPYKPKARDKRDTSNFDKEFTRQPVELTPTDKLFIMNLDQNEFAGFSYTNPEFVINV
Nature of the assay: EGFP-PKC translocation in HeLa cells (PKCβ). Format: cell-based. To be noted: one hour. As for the experimental part: as §1, §2

Another assay has as its target T4, PKCζ (Homo sapiens, UniProt Q05513).
T4 construct: host or cells: HeLa cells
T4 sequence (Q05513 1-592): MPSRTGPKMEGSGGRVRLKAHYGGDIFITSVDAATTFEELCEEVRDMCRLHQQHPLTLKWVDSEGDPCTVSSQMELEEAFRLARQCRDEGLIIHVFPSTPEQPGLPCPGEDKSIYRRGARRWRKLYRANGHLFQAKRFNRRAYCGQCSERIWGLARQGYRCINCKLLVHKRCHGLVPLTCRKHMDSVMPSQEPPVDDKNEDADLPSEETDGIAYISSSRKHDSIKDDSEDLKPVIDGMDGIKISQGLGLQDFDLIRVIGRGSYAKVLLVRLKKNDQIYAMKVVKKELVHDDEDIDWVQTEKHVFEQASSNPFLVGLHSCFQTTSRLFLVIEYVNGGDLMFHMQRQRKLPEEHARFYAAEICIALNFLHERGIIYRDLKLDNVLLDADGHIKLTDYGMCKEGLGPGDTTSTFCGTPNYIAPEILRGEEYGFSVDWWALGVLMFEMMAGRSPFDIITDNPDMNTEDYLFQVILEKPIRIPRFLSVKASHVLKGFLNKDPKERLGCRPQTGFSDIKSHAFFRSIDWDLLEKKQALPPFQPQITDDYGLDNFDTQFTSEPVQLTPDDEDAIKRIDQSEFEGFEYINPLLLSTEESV
Nature of the assay: EGFP-PKC translocation in HeLa cells (PKCζ). Format: cell-based. To be noted: one hour, same concentrations. As for the experimental part: as §1, §2

For the next assay, the system named is HIV-strain pNL4-3. Nature of the assay: HIV-1 replication in acutely infected PBMC (CA-p24 ELISA). The format is cell-based. As to conditions: 2.8 nM. On the procedure:
Experiments were conducted to assess the effect of the compounds of the instant invention on HIV-1 replication in acutely infected T cells. Peripheral blood mononuclear cells (PBMC) were obtained from non-HIV-1, non-HIV-2, non-Hepatitis B/C infected donors, stimulated with phytohemagglutinin-M and grown in culture media supplemented with 10 U/mL interleukin-2. The activated PBMC were infected with […] (Low Titre) and 100 ng (High Titre) of CA-p24 equivalents of the HIV-strain pNL4-3. Cells were infected for two hr after which, the virus was removed and the cells were washed with culture media. Equivalent numbers of cells were seeded into 24 well plates and compounds were added to the cultured cells that included: TPA at 8 nM and 80 nM, Ingenol at 280 nM, PEP003 at 500 nM, 50 nM and 5 nM, or PEP004 at dilutions of 1×10^4 and 1×10^5 from the stock (final concentrations). In addition, uninfected activated PBMC were grown in the presence of TPA (80 nM), Ingenol (280 nM), PEP003 (500 nM) and PEP004 (1×10^4 dilution). Other cultures were neither infected nor treated with any compound, or infected but not treated with any compound. Supernatant was removed from each culture at day 0, 3, 7, and 10. The amount of HIV-1 CA-p24 was determined using a commercially available ELISA assay. Three independent experiments were performed.
For orientation: An ELISA detects its analyte on a solid surface through an enzyme-linked reagent.

The subject of assay [3] is phorbol ester binding site of PKC. Nature of the assay: [3H]-phorbol dibutyrate competition assay, rat brain homogenate. On the procedure: A competition assay was performed to determine whether the diterpene esters of the instant invention bind to the phorbol ester binding site of PKC. […] This binding was not blocked by co-incubation with bisindolylmaleimide.
For a further assay, the target named is T5, PKCα (Homo sapiens, UniProt P17252).
T5 construct: host or cells: HeLa cells
Format: cell-based. To be noted: HeLa, one hour; TPA 100 ng/mL, bryostatin-1 5 pg/mL, PEP003 2.25 μg/mL (5 μM). On the procedure:
as §1
as §2, with “counted.” for “counted. Results are presented as an average and standard deviation of percentages of cells (Table 1).”

Assay [4] concerns neonatal foreskin fibroblasts. Nature of the assay: Pretreated fibroblasts, killing by untreated leukocytes. As to conditions: targets pretreated with 60 ng/mL for 20 hr, 100:1 effector:target. Format: cell-based, human. As for the experimental part: (§3) Leukocytes obtained by lysis of human peripheral blood were added to 5000 MM96L human melanoma cells or 7000 neonatal foreskin fibroblasts per microtitre well at effector: target ratios of 1000, 100 and 10:1. The target cells had been treated with 60 ng/mL PEP008 for 20 hr beforehand, and washed and the medium replaced before the leukocytes were added. After 48 hr incubation with the leukocytes the cultures were washed and labelled with [3H]-thymidine for 2 hr. […] Untreated leukocytes had no effect on cell survival.

Assay [5] has as its system MM96L human melanoma cells. Nature of the assay: Leukocytes plus drug, killing of MM96L cells ([3H]-thymidine). Format: cell-based. As to conditions: 60 ng/mL, 48 hr, 100:1 effector:target. On the procedure: (§4) Leukocytes obtained by lysis of human peripheral blood were added to 5000 MM96L human melanoma cells or 7000 neonatal foreskin fibroblasts per microtitre well at effector: target ratios of 1000, 100 and 10:1. Ing9 (60 ng/mL) was added and after 48 hr incubation the cultures were washed and labelled with [3H]-thymidine for 2 hr. […] Untreated leukocytes had no effect on cell survival.

The test system of assay [6] is MM96L human melanoma cells. Kind of assay: Pretreated MM96L cells, killing by untreated leukocytes. The format is cell-based. As to conditions: targets pretreated with 60 ng/mL for 20 hr, 100:1 effector:target. On the procedure: as §3
Assay [7] deals with neonatal foreskin fibroblasts. Nature of the assay: Leukocytes plus drug, killing of fibroblasts ([3H]-thymidine). As to conditions: 60 ng/mL, 48 hr, 100:1 effector:target. The format is cell-based, human. As for the experimental part: as §4
For a further assay, the system named is rat brain PKC. Nature of the assay: PKC kinase activity, PepTag non-radioactive protein kinase assay. Format: biochemical. As to conditions: PepTag gel; various dilutions of TPA; ether extract final dilution 1 in 5; crude sap and aqueous layer diluted 1/25.

Description for rat brain PKC: The kinase activity of rat brain PKC (Promega) was determined using the Peptag™ Non-Radioactive Protein Kinase Kit (Promega). Using agarose gel electrophoresis the technique visualises the opposing electrostatic charge of a fluorescently labeled peptide ([sequence]) compared to the phosphorylated version of the same peptide.
The reaction mixture was separated by gel electrophoresis, showing migration of the unreacted substrate (a) to the anode (top), and the product (b), which is more negatively charged because of phosphorylation by PKC, moving towards the cathode (bottom).

`C/C=C(/C)C(=O)O[C@H]1C(C)=C[C@]23C(=O)[C@H](C=C(C)[C@@H](O)[C@]12O)[C@H]1[C@@H](C[C@H]3C)C1(C)C` [PEP006, 20-deoxy-ingenol-3-angelate]: in the assay with adenovirus 5 (295 ng/mL), the “increase in adenovirus replication (number of stained cells)” value (“increase in adenovirus replication” for short) amounted to 256%. For the same compound, in [1], the “phagocytosis of fluorescent latex spheres in PBMCs” value (shortened to “phagocytosis”) is recorded as “stimulate phagocytosis”.

With `CCC/C=C/C=C/C(=O)O[C@H]1/C(=C/C(=O)OC)C[C@H]2C[C@H]([C@@H](C)O)OC(=O)C[C@H](O)C[C@@H]3C[C@H](OC(C)=O)C(C)(C)[C@](O)(C[C@@H]4C/C(=C/C(=O)OC)C[C@H](/C=C/C(C)(C)[C@]1(O)O2)O4)O3` [bryostatin-1], at PKCγ, the “translocation of PKCγ from cytoplasm to plasma membrane” value is “not with bryostatin-1”. Also, the “induction of respiratory burst (H2O2, DCFH-DA)” value in assay [2] is on record as “All compounds except Bryostatin induced a respiratory burst”. In addition, the “translocation of PKCθ” value on PKCθ is listed as “translocated”. For the same compound, the “number of PKCβ transfected cells with Golgi-like fluorescence” value at PKCβ was “decreases the number of cells”. Also, the “translocation of PKCζ” value at PKCζ is recorded as “fail to induce translocation”.

For `CC1=C[C@]23C(=O)[C@@H](C=C(CO)[C@@H](O)[C@]2(O)[C@H]1O)[C@H]1[C@@H](C[C@H]3C)C1(C)C` [Ingenol], the “reduction of HIV-1 replication rate” value in the assay with HIV-strain pNL4-3 is reported as “approximately 35%”.

Consider bisindolylmaleimide, for which, in [3], the “binds to the phorbol ester binding site of PKC” value is “does not”.

`C/C=C(/C)C(=O)O[C@H]1C(C)=C[C@]23C(=O)[C@@H](C=C(CO)[C@@H](O)[C@]12O)[C@H]1[C@@H](C[C@H]3C)C1(C)C` [PEP005, ingenol-3-angelate]: the “translocation of PKCγ from cytoplasm to plasma membrane” value on PKCγ is recorded as “translocated from the cytoplasm to the plasma membrane”. The “increase in adenovirus replication” value with adenovirus 5 (67 ng/mL) came to 344%. Moreover, the “translocation of PKCθ” value at PKCθ is listed as “does not induce any change”. The “phagocytosis” value in assay [1] was “stimulate phagocytosis”. Besides, the “number of PKCβ transfected cells with Golgi-like fluorescence” value at PKCβ is “decreases the number of cells”. The “translocation of PKCβ from cytoplasm to plasma membrane” value at PKCβ (TPA 100 ng/mL, bryostatin-1 5 pg/mL, PEP003 2.25 μg/mL (5 μM), PEP005 670 μg/mL (1.5 μM)) is “translocated from the cytoplasm to the plasma membrane”. Moreover, the “translocation of PKCα from cytoplasm to plasma membrane” value on PKCα was “translocated from the cytoplasm to the plasma membrane”. Further, at PKCζ, the “translocation of PKCζ” value is “fail to induce translocation”.

For the compound `C/C=C(/C)C(=O)O[C@H]1C(C)=C[C@]23C(=O)[C@@H](C=C(COC(C)=O)[C@@H](O)[C@]12O)[C@H]1[C@@H](C[C@H]3C)C1(C)C` [PEP008, 20-O-acetyl-ingenol-3-angelate], the “survival of normal fibroblasts” value in assay [4] and in [7] was 100% each time. The “increase in adenovirus replication” value in the assay with adenovirus 5 (226 ng/mL) was 248%. In addition, in assay [1], the “phagocytosis” value is reported as “stimulate phagocytosis”. The “survival of melanoma cells” value was found to be 9% in assay [5] and 12% in [6].

In the case of phosphatidyl serine, the “activation of PKC (FIG. 1)” value with rat brain PKC is given as “strong activation”.
